Key:
[1] = biological target: T1, BCL-XL protein in MOLT-4 cells (Homo sapiens, UniProt Q07817); assay: Degradation effect on BCL-XL protein in MOLT-4 cells by Western Blot; type: cell-based; conditions: 24 hours incubation, corrected by β-actin, read-out: DC50 concentration for BCL-XL protein degradation
T1 construct: host or cells: MOLT-4
Description: Experimental Example 6. Experiment to Evaluate Degradation Effect of Compound on BCL-XL Protein in MOLT-4 Cells by Western Blot Method
SDS-PAGE gel (4-12%) (Genscript), PMSF 100 mM (Biyotime), Cocktail 100× (Biyotime), P/S, RPMI medium modified (Hyclone), FBS (Corning), 4× loading buffer (Thermo), Bcl-xL (54H6) Rabbit mAb (CST), Anti-rabbit IgG-HRP (CST), Anti-β-actin-HRP (Abcam), RIPA (Biyotime), Tween-20, MOLT-4 cell (ATCC), BCA Protein Assay Kit (TIANGEN), Immobilon Western Chemilunescent HRP Substrate (Millipore).
1) Incubation of compound and cells: 1 mL of 10^6 MOLT-4 cells (culture medium: 89% RPMI, 10% FBS, 1% P/S) was inoculated in a 6-well cell culture plate, the compound was subjected to gradient dilution with DMSO, then the compound diluted in DMSO in gradient was diluted again into the MOLT-4 medium, and 1 mL of the diluted compound was directly added to the 6-well plate with the cultured cells and incubated for 24 hours.
2) Protein extraction: After the compound and the cells were co-incubated for 24 hours, the cells were collected and placed in a 1.5 mL centrifuge tube, washed twice with ice-cold PBS, the supernatant was discarded, then 150 μL of RIPA lysis buffer was added and lysis was carried out on ice for 30 minutes; then the cell lysate was centrifuged in a low-temperature centrifuge at 15,000 rpm for 10 minutes, and the supernatant was collected; and BCA Protein Assay Kit was used to quantify the protein in the resulting cell lysate supernatant. 4× loading buffer was added to the cell lysate supernatant and incubated at 85° C. for 10 minutes to obtain a sample. The obtained sample was stored in −80° C. refrigerator for the use on the next day. 20 μg of the sample was taken to perform SDS-Page and transmembrane, 5% skim milk was used to block the membrane for 1 hour, and then Bcl-xL (54H6) rabbit mAb, Anti-rabbit IgG-HRP, Anti-β-actin-HRP were used for incubation. After incubation, Immobilon Western Chemiluminescent HRP Substrate was used for color development, and a gel analyzer was used for analysis.
Analysis was performed with a grayscale analysis software, the amount of BCL-XL protein was corrected by the amount of β-actin, and then Graphpad 6 was used to calculate DC50.

[2] = system: MOLT-4 cells; assay: Inhibitory activity on MOLT4 cell proliferation by Cell Titer-Glo method; type: cell-based; conditions: Homo sapiens, 72 hours incubation, read-out: IC50 concentration for inhibiting MOLT-4 cells
Description: Experimental Example 5, Evaluation Experiment of Inhibitory Activity of Compound on MOLT4 Cell Proliferation by Cell Titer-Glo Method
RPMI medium modified (Hyclone), FBS (Corning), Dimethyl Sulfoxide, P/S, CellTiter-Gbo Luminescent Cell Viability Assay (Promega), MOLT-4 cell (ATCC).
MOLT-4 cells were cultured in monolayer in vitro in an incubator containing 5% CO2 air at 37° C. The culture medium was RPMI 1640 with 10% FBS and 1% P/S. 15 μL of MOLT4 cells, containing 5×10^4 cells per ml, was inoculated to a 384-well plate (Corning, 3707), 750 cells/well, and incubated at 37° C. and 5% CO2 for 30 minutes. Then the compound that had been diluted in advance was added, with a total of 9 concentration points, and 2 parallel repetitions for each concentration point. The cell growing group without adding the compound was used as a negative control (maximum signal control), and the culture medium group was used as a blank control (minimum signal control). At the same time, it was ensured that the final DMSO content in each reaction well was 0.1%. The compound and the cells were incubated in a cell culture incubator at 37° C., 5% CO2 for 3 days (72 hours).
The 384-well plate was taken out from the cell culture incubator and allowed to stand at room temperature, equilibrated for 20 to 30 minutes, and then 25 μl of Cell Titer-Glo detection reagent was added to each reaction well, lysed on a shaker for 2 minutes, incubated for 10 minutes, and BMG PHERAStar (Luminescence) was used for reading.
The inhibition rate was calculated based on the luminescence signals: the average value of the negative control (maximum signal control) and the blank control (minimum signal control) was first calculated, then the inhibition rates of the compound at different concentrations for the cells were calculated as follows:
The IC50 of the compound to inhibit cell activity was calculated by fitting with GraphPad Prism 6 using log(inhibitor) vs. response−Variable slope mode. The fitting equation was: Y=Bottom+(Top−Bottom)/(1+10^((LogIC50−X)*HillSlope)), wherein Y represented the inhibition rate and X represented the known compound concentration after Log.

[3] = biological target: ternary complex between BCL-XL and CRBN-DDB1 (Homo sapiens, UniProt Q07817+Q96SW2); assay: Compound-induced formation of ternary complex between BCL-XL and CRBN-DDB1 by AlphaLISA; type: biochemical; design: key: the number of + indicates the intensity of AlphaLISA peak signal; ++: the number of + indicates the intensity of AlphaLISA peak signal; +++: the number of + indicates the intensity of AlphaLISA peak signal; ++++: the number of + indicates the intensity of AlphaLISA peak signal; +++++: the number of + indicates the intensity of AlphaLISA peak signal; conditions: peak signal; 60 nM Strep-BCL-XL and 60 nM His-CRBN/DDB1
ternary complex between BCL-XL and CRBN-DDB1, sequence (Q07817 whole entry): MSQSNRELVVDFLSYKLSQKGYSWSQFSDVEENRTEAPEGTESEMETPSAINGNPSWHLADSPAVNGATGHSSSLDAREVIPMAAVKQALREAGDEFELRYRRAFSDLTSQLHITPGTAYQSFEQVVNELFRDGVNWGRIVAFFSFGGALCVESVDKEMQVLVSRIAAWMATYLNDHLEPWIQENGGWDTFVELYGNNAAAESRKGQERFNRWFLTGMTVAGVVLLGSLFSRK
ternary complex between BCL-XL and CRBN-DDB1, sequence (Q96SW2 whole entry): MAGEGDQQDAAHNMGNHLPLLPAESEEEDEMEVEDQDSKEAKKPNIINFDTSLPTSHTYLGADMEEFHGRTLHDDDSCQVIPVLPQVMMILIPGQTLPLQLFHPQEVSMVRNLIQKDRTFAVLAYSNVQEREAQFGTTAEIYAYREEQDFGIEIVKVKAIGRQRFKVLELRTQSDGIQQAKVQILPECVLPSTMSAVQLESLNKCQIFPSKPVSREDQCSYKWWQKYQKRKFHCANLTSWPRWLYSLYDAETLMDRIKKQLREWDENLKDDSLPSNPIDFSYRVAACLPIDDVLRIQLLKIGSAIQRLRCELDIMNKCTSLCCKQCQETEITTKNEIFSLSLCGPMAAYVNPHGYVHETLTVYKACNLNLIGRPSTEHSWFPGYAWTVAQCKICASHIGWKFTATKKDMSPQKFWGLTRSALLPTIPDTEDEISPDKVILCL
ternary complex between BCL-XL and CRBN-DDB1, sequence (Q16531 whole entry partner): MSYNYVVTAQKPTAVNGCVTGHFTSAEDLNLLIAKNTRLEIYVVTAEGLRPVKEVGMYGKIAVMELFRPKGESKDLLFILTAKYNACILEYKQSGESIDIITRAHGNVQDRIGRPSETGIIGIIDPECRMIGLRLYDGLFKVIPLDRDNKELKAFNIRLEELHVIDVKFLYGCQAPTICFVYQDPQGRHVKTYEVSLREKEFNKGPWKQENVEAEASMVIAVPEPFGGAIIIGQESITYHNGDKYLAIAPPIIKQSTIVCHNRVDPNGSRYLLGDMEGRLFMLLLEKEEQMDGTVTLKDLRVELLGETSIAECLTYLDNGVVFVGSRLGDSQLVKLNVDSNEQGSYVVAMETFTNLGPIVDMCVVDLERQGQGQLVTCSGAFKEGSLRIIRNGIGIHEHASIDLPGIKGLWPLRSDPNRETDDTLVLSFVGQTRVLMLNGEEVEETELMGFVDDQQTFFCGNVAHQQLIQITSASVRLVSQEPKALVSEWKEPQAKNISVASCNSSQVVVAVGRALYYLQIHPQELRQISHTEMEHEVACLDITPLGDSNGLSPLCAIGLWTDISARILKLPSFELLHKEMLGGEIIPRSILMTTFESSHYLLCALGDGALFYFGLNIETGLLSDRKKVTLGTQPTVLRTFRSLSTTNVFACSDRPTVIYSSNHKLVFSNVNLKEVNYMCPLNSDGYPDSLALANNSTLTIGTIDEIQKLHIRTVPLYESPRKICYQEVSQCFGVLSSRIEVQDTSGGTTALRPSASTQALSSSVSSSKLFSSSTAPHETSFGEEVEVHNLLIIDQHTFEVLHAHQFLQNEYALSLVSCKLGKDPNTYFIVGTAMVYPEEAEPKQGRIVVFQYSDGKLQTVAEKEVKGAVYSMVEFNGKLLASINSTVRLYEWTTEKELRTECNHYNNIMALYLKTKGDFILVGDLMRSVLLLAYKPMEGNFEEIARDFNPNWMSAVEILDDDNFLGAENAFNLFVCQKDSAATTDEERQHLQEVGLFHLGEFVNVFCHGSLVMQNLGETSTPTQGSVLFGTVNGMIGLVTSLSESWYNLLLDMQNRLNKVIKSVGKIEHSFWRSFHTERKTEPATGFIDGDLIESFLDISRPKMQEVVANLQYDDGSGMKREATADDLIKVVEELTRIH
Description: Experimental Example 4, Detection of Compound-Induced Formation of Ternary Complex Between BCL-XL and CRBN-DDB1 by AlphaLISA Method
Na2HPO4(Sigma), NaH2PO4(Sigma), sodium chloride (Sigma), Tween-20 (Sigma), AlphaLISA®Nikel Chelate Acceptor beads (PerkinElmer), Strep-Tactin® Alpha Donor beads (PerkinElmer), Assay plate (Corning), Strep-BCl-XL (HitGen), His-CRBN/DDB1 (HitGen).
DMSO was used to dissolve the dry powder of the test compound to obtain a 10.00 mM solution. The instrument ECHO was used to perform gradient dilution of the compound, which was then added to a 384-well reaction plate (Corning, Cat #3824), so that the final concentration of DMSO in the entire reaction system (10.0 μL) was less than 1%, and the same amount of DMSO was added and used as a control.
Strep-BCl-XL and His-CRBN/DDB1 proteins were dissolved in buffer (10 mM NaH2PO4, 40 mM Na2HPO4, 150 mM sodium chloride, 0.03% Tween20, pH=7.4) to obtain a protein mixture of 60 nM Strep-BCL-XL and 60 nM His-CRBN/DDB1, the protein mixture (5ul/well) was added to the 384-well plate in which the compound had been added, and incubated at room temperature for 30 minutes, then 5 μl of a detection mixture with 50 μg/ml AlphaLISA®Nikel Chelate Acceptor beads and 50 μg/ml Strep-Tactin® Alpha Donor beads was added, and incubated at room temperature for 2 hours; and then a microplate reader was used to detect AlphaLISA signal.
Fifth order polynomial or Sixth order polynomial in Polynomial of Graphpad 6.0 was used for data fitting.

T1 sequence (Q07817 whole entry): as the sequence (Q07817 whole entry) above

SMILES | DC50 [1] | IC50 [2] | AlphaLISA signal (PROTAC ternary complex signal intensity) [3]
CNc1nc(-c2cnc3ccccc3c2)nc2c1CCN(C(=O)c1ccc(/C=C/c3ccc(C#CCN4CCN(CCC#Cc5cccc(N6CCC(=O)NC6=O)c5)CC4)cc3)cc1)C2 [Compound H1-1] | < 1 µM | < 1 µM | 
O=C1CCC(N2Cc3cc(N4CCC(CN5CCN(CC#Cc6ccc(/C=C/c7ccc(C(=O)N8CCc9cnc(-c%10cnc%11ccccc%11c%10)nc9C8)cc7)cc6)CC5)CC4)ccc3C2=O)C(=O)N1 (stereo not shown) [Compound F2-4] | 1 to 10 µM | 1 to 10 µM | ++
C=Cc1cc(-c2nc3c(c(NC)n2)CCN(C(=O)c2ccc(COc4ccc(C#CCN5CCN(CCCCNc6cccc7c6C(=O)N(C6CCC(=O)NC6=O)C7=O)CC5)cc4)cc2)C3)cnc1C=C (stereo not shown) [Compound C2-2] |  | 50 to 100 µM | ++++
CNc1nc(-c2cnc3ccccc3c2)nc2c1CCN(C(=O)c1ccc(/C=C/c3ccc(C#CCN4CCN(CCCC#Cc5cccc6c5CN(C5CCC(=O)NC5=O)C6=O)CC4)cc3)cc1)C2 (stereo not shown) [Compound D2-6] |  | 100 to 200 µM | ++

The next lines start with the values.

DC50 [1] | IC50 [2] | AlphaLISA signal (PROTAC ternary complex signal intensity) [3] | SMILES
< 1 µM | 1 to 10 µM | ++ | O=C1CCC(N2Cc3c(CN4CC5(C4)CN(C4CCN(CC#Cc6ccc(/C=C/c7ccc(C(=O)N8CCc9cnc(-c%10cnc%11ccccc%11c%10)nc9C8)cc7)cc6)CC4)C5)cccc3C2=O)C(=O)N1 (stereo not shown) [Compound F3B-3]
50 to 100 µM | 50 to 100 µM | + | O=C1CCC(N2C(=O)c3ccc(N4CCN(CC5CCN(CC#Cc6ccc(/C=C/c7ccc(C(=O)N8CCc9cnc(-c%10cnc%11ccccc%11c%10)nc9C8)cc7)cc6)CC5)CC4)cc3C2=O)C(=O)N1 (stereo not shown) [Compound F1B-2]
1 to 10 µM | 50 to 100 µM |  | O=C1CCC(N2Cc3cc(N4CCC(CN5CCN(CC#Cc6ccc(OCC78CC(C(=O)N9CCc%10cnc(-c%11cnc%12ccccc%12c%11)nc%10C9)(C7)C8)cc6)CC5)CC4)ccc3C2=O)C(=O)N1 (stereo not shown) [Compound F2-9]
1 to 10 µM | < 1 µM |  | CNc1nc(-c2cnc3ccccc3c2)nc2c1CCN(C(=O)c1ccc(/C=C/c3ccc(C#CCN4CCN(CCC#Cc5cccc(C6CCC(=O)NC6=O)c5)CC4)cc3)cc1)C2 (stereo not shown) [Compound D2-15]
1 to 10 µM | 50 to 100 µM |  | CNc1nc(-c2cnc3ccccc3c2)nc2c1CCN(C(=O)c1ccc(/C=C/c3ccc(C#CCN4CCN(CC5CCN(c6ccc7c(c6)C(=O)N(C6CCC(=O)NC6=O)C7=O)CC5)CC4)cc3)cc1)C2 (stereo not shown) [Compound F2-11]
1 to 10 µM | 50 to 100 µM |  | CNc1nc(-c2cnc3ccccc3c2)nc2c1CCN(C(=O)c1ccc(/C=C/c3ccc(C#CCN4CCC(CN5CCN(c6cc7c(cc6F)C(=O)N(C6CCC(=O)NC6=O)C7=O)CC5)CC4)cc3)cc1)C2 (stereo not shown) [Compound F1B-3]
< 1 µM | 1 to 10 µM |  | CNc1nc(-c2cnc3ccccc3c2)nc2c1CCN(C(=O)c1ccc(/C=C/c3ccc(C#CCN4CCN(CC5CCN(c6ccc7c(c6)CN(C6CCC(=O)NC6=O)C7=O)CC5)CC4)cc3)cc1)C2 (stereo not shown) [Compound F2-8]

From patent US20250136593A1, “DEGRADATION AGENT AND USE THEREOF” (HITGEN INC., priority 2021, published 2025)
